Data set [1] has as its target pig striatum A2A receptor (Sus scrofa, UniProt K9IW67). To be noted: cited from earlier work.
For data set [2] the following is noted: pig, in vivo; cited from earlier work.
The next data set concerns HIV-1. To be noted: cited from earlier work.
A further data set concerns L1210 cancer cells. To be noted: cited from earlier work.
The test system of the next data set is CEM cancer cells. To be noted: cited from earlier work.
In the next data set the test system is MP-2 cancer cells. The following applies: cited from earlier work.
For a further data set, the system named is BxPC-3 cancer cells. The following applies: cited from earlier work.
Data set [3] concerns the target GABAA receptor α1 subunits (Homo sapiens, UniProt P14867). The following applies: cited from earlier work.
The next data set addresses adenosine A2 receptors. To be noted: cited from earlier work.
Data set [4] has as its system tropomyosin-related kinases TrkA, TrkB, and TrkC. The following applies: cited from earlier work.
Another data set has as its system CUTO-3.29. To be noted: cited from earlier work.
In another data set the test system is KM12. The following applies: cited from earlier work.
Another data set relates to MO-91. To be noted: cited from earlier work.
The target in data set [5] is T1, LFA-1 interaction with ICAM-1 (Homo sapiens, UniProt P05107+P20701).
T1 construct: endogenous in cells; host or cells: Jurkat T cells
T1 sequence (P20701 26-1170): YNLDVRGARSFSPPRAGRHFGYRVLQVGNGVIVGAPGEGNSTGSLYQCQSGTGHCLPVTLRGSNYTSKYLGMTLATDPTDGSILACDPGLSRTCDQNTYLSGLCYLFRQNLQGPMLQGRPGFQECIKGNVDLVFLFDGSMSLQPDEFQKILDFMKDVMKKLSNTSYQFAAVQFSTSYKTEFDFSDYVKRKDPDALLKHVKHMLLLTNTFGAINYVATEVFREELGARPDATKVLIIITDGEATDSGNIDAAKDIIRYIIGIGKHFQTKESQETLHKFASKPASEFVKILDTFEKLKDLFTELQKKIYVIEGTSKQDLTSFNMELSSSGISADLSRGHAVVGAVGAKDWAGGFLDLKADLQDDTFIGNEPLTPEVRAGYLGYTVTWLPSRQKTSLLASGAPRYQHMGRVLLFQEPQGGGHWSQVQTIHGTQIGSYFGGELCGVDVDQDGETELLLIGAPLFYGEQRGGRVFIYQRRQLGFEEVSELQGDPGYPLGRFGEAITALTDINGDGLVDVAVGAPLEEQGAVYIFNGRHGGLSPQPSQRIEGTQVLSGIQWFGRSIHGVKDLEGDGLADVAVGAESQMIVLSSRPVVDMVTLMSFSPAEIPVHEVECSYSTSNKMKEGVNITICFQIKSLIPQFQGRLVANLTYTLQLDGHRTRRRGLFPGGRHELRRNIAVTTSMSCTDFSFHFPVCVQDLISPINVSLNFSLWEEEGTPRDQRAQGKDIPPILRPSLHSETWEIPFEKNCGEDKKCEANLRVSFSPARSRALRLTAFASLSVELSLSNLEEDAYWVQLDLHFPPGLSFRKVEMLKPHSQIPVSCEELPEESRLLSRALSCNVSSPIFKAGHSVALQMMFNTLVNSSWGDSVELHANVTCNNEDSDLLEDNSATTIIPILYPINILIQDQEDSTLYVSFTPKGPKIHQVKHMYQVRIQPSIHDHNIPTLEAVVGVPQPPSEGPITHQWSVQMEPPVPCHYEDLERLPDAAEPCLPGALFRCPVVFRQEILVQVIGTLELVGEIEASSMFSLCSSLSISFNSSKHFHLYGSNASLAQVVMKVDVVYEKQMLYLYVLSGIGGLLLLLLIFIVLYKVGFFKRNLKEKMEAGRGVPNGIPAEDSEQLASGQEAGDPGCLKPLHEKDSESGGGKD
T1 sequence (P05107 23-769): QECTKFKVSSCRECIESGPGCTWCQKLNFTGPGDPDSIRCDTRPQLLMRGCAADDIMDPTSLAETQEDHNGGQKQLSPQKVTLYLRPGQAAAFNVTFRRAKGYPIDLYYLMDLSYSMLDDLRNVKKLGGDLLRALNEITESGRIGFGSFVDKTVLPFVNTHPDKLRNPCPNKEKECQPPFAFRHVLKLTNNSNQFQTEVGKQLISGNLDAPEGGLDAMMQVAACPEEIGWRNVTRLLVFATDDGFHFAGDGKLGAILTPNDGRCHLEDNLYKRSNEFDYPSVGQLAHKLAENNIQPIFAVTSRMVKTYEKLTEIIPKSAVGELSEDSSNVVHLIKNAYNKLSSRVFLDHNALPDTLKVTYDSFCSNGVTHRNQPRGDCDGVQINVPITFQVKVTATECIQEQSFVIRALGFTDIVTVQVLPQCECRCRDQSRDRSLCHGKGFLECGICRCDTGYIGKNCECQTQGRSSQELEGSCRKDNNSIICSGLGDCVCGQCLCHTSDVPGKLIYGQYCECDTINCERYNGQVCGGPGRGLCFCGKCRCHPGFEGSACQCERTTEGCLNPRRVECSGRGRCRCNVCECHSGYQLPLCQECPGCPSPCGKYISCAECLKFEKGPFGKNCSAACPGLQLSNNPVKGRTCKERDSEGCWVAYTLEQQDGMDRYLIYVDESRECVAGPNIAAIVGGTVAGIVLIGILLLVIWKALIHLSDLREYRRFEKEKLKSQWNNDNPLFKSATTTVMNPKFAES
To be noted: Jurkat T cells; cited from earlier work.

Data set [6] concerns adhesion of HuT 78 cells to ICAM-1. To be noted: cited from earlier work.
A short description of data set [7]: Uninfected host cell cytotoxicity counter screen. In kind it is cell-based, human. The following applies: human, uninfected HeLa-ACE2 cells; uninfected HeLa-ACE2, 24 h. As for the experimental part: (§1) Compounds were acoustically transferred into 1,536-well clear plates (Greiner Part. No. 789091). HeLa-ACE2 cells were maintained as described for the infection assay and seeded in the assay-ready plates at 400 cells/well in DMEM with 2% FBS and plates were incubated for 24 hours at 37 5% CO2. To assess cell viability, the Image-iT DEAD green reagent (Thermo Fisher) was used according to manufacturer instructions. Cells were fixed with 4% paraformaldehyde, and counterstained with DAPI. Fixed cells were imaged using the ImageXpress Micro Confocal High-Content Imaging System (Molecular Devices) with a 10× objective, and total live cells per well quantified in the acquired images using the Live Dead Application Module (MetaXpress).
(§2) Image analysis was carried out with MetaXpress (version 6.5.4.532). Primary in vitro screen and the host cell cytotoxicity counter screen data were uploaded to Genedata Screener, Version 16.0.3-Standard. Data were normalized to neutral (DMSO) […] inhibitor controls (2.5 μM remdesivir for antiviral effect and 10 μM puromycin for infected host cell toxicity). For the uninfected host cell cytotoxicity counter screen 40 μM puromycin (Sigma) was used as the positive control. For dose response experiments compounds were tested in technical triplicates on different assay plates and dose curves were fitted with the four parameter Hill Equation. Technical replicate data were analyzed using median condensing.
In general terms: A counterscreen serves to expose hits that act by an unwanted route or on another target.

In data set [8] the test system is SARS-CoV-2. To be noted: for Hill coefficient (Nh): slope of the dose response curve.
For data set [9] the following is noted: mouse, IV; cited from earlier work.
For data set [10] the following is noted: dog, IV; cited from earlier work.
The conditions of data set [11]: monkey, IV; cited from earlier work.
Data set [12] concerns the target T2, cytochrome P450 (CYP) 3A4 (Homo sapiens, UniProt P08684).
T2 construct: from tissue; host or cells: human liver microsomes
To be noted: human liver microsomes; cited from earlier work. (In general: Liver microsomes are a subcellular fraction often used to study metabolism.)

The test system of data set [13] is SARS-CoV-2. The following applies: cited from earlier work.
Data set [14] relates to SARS-CoV-2. The following applies: read-out: CPE EC50; cited from earlier work.
The test system of another data set is Vero E6 cells. To be noted: cited from earlier work.
The conditions of data set [15]: i.v., 28 day, dosed daily; cited from earlier work.
The conditions of data set [16]: intravenously, cited from earlier work.
The conditions of data set [17]: 30 mg/kg and 60 mg/kg oral gavage; cited from earlier work.
The conditions of data set [18]: in vivo, cited from earlier work.
Data set [19] relates to SARS-CoV-2. The data set is described as follows: microbe, parasite or virus in culture.
In data set [20] the test system is SARS-CoV-2. The following applies: cited from earlier work. The source holds these as a separate data set.
Data set [21] concerns HeLa-ACE2 cells. The following applies: Bakowski et al, 2020; cited from earlier work.
In data set [22] the test system is HeLa-ACE2 cells. The data set is described as follows: Uninfected host cell cytotoxicity counter screen. Type of data set: cell-based, human. To be noted: uninfected HeLa-ACE2, 24 h. As for the experimental part:
as §1, §2

The conditions of data set [23]: mice; cited from earlier work.
The conditions of data set [24]: humans; cited from earlier work.
Another data set has as its system Scaber cells. To be noted: cited from earlier work.
A further data set relates to SIHA cells. The following applies: cited from earlier work.
In another data set the test system is MKN45 cells. To be noted: cited from earlier work.
The test system of a further data set is COLO205 cells. The following applies: cited from earlier work.
The subject of another data set is HCT116 cells. The following applies: cited from earlier work.
In the next data set the test system is MCF-7 cells. To be noted: cited from earlier work.
The conditions of data set [25]: rats; cited from earlier work.
The conditions of data set [26]: humans; cited from earlier work. The source holds these as a separate data set.
[27] abbreviates: Severe acute respiratory syndrome coronavirus 2, HeLa-ACE2, 24 h.
Setting [28] is: Severe acute respiratory syndrome coronavirus 2, HeLa-ACE2, CoV-2/HeLa-ACE2 assay, unit uM.

SMILES strings stand for the structures. Like-named read-outs stand apart in the source and are kept apart here.

Sequence of GABAA receptor α1 subunits (P14867 28-456): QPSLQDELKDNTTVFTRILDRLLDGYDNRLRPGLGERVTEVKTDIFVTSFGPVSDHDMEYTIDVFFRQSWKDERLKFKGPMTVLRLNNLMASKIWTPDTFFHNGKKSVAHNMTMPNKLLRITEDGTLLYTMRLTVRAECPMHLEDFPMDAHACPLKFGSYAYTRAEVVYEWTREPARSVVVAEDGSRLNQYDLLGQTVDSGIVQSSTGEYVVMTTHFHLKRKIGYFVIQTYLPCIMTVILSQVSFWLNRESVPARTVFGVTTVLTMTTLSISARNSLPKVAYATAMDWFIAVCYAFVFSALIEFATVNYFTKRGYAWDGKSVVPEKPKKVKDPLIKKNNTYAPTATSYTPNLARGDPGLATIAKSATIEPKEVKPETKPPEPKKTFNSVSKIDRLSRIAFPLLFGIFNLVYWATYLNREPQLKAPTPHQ
Sequence of GABAA receptor α1 subunits (P47870 25-512 partner limits assumed): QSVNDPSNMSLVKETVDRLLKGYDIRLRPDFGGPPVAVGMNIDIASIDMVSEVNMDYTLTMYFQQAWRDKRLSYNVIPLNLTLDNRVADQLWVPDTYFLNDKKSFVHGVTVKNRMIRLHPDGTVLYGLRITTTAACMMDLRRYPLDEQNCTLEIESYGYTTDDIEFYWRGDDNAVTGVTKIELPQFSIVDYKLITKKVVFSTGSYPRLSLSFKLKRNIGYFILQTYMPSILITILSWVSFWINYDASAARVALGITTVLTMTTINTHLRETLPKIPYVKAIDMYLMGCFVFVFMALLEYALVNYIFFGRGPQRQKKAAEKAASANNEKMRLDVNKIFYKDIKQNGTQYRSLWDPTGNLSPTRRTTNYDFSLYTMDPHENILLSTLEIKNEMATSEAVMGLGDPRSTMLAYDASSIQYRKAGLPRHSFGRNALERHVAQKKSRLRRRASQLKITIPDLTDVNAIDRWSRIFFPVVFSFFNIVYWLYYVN
Sequence of GABAA receptor α1 subunits (P18507 40-467 partner limits assumed): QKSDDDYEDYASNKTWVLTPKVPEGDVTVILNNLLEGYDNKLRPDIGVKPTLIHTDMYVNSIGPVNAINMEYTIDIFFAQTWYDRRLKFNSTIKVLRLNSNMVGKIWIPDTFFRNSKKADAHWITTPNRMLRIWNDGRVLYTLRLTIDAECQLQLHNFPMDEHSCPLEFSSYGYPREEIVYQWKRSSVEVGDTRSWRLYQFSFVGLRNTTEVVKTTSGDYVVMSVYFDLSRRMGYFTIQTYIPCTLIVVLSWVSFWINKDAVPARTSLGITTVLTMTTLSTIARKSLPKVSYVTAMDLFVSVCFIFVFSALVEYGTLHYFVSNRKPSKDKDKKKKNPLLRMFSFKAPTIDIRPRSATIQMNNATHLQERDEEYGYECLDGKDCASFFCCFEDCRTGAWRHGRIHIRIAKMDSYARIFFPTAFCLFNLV
Sequence of pig striatum A2A receptor (K9IW67 entry or part of it): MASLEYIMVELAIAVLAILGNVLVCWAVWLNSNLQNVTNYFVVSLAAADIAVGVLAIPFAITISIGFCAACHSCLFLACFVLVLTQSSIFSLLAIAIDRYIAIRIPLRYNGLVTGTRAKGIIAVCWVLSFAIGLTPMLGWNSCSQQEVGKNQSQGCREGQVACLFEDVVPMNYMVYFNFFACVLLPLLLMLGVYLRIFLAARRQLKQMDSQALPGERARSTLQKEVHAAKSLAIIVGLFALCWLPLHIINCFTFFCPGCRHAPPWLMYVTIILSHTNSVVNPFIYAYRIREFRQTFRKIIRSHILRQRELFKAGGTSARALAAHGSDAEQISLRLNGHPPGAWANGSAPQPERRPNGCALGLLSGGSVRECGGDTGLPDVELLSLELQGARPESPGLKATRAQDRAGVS
T2 sequence (P08684 whole entry): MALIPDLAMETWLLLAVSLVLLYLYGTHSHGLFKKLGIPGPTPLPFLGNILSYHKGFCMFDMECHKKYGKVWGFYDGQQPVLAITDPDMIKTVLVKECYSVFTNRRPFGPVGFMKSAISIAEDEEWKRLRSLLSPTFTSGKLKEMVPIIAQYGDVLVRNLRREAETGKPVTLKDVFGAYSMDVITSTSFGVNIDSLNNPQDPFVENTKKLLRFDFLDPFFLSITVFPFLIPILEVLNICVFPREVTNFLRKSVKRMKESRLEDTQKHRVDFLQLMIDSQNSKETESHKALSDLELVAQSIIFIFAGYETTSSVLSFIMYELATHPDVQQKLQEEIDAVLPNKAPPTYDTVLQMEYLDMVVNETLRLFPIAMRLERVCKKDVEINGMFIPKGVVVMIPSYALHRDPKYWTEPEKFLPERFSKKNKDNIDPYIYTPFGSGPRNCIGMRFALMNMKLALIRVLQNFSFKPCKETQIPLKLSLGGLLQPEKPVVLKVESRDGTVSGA

For the compound `CNC(=O)c1cnn(-c2nc(N)c3ncn([C@@H]4O[C@H](CO)[C@@H](O)[C@H]4O)c3n2)c1` [Regadenoson, 2-[4-[(methylamino)carbonyl]-1H-pyrazol-1-yl]-adenosine], the inhibition constant (Ki) in data set [1] is 0.0011 µM. Besides, in data set [2], the half-time to reversal was 1.9 to 2.6 min and the “increase of coronary blood flow” value is given as 3.4- to 3.8 fold.
Take `Cc1cccc(C)c1OCC(=O)N[C@@H](Cc1ccccc1)[C@@H](O)C[C@H](Cc1ccccc1)NC(=O)[C@H](C(C)C)N1CCCNC1=O` [Lopinavir, N-[(1S,3S,4S)-4-[[2-(2,6-dimethylphenoxy)acetyl]amino]-3-hydroxy-5-phenyl-1-(phenylmethyl)pentyl]tetrahydro-aS-(1-methylethyl)-2-oxo-1(2H)-pyrimidineacetamide]: the concentration giving a half-maximal response (EC50) in the data set on HIV-1 was 0.005 to 0.052 µM.
Take `C[C@H](NP(=O)(OC[C@H]1O[C@@H](n2ccc(N)nc2=O)C(F)(F)[C@@H]1O)Oc1ccccc1)C(=O)OCc1ccccc1` (stereo partly drawn) [NUC-1031, N-(2′-deoxy-2′,2′-difluoro-P-phenyl-5′-cytidylyl)-L-alanine, phenylmethyl ester]: the concentration for half-maximal inhibition (IC50) in the data set with L1210 cancer cells was 0.035 µM; in the data set with CEM cancer cells it was 0.03 µM; in the data set with MP-2 cancer cells, 0.06 µM; in the data set with BxPC-3 cancer cells, 0.04 µM.
For the compound `CC(=O)N(C)c1cccc(-c2ccnc3c(C(=O)c4cccs4)cnn23)c1` [Indiplon, N-methyl-N-[3-[3-(2-thienylcarbonyl)pyrazolo[1,5-a]pyrimidin-7-yl]phenyl]-acetamide], in [3], the half-maximal effective concentration (EC50) is 0.0026 µM.
`CNC(=O)[C@H]1O[C@@H](n2cnc3c(NCc4cccc(I)c4)ncnc32)[C@H](O)[C@@H]1O` [Piclidenoson, 1-deoxy-1-[6-[[(3-iodophenyl)methyl]amino]-9H-purin-9-yl]-N-methyl-β-D-ribofuranuronamide]: the inhibition constant Ki at adenosine A2 receptors was 3.1 µM.
As to `O=C(Nc1cnn2ccc(N3CCC[C@@H]3c3cc(F)ccc3F)nc12)N1CC[C@H](O)C1` [LOXO-101, (3S)—N-[5-[(2R)-2-(2,5-difluorophenyl)-1-pyrrolidinyl]pyrazolo[1,5-a]pyrimidin-3-yl]-3-hydroxy-1-pyrrolidinecarboxamide], the half-inhibitory concentration (IC50) in data set [4] is 0.002 to 0.02 µM; with CUTO-3.29, less than 0.1 µM; with KM12 it was less than 0.01 µM; with MO-91, less than 0.01 µM.
With `CS(=O)(=O)c1cccc(C[C@H](NC(=O)c2c(Cl)cc3c(c2Cl)CCN(C(=O)c2ccc4ccoc4c2)C3)C(=O)O)c1` [Lifitegrast, N-[[2-(6-benzofuranylcarbonyl)-5,7-dichloro-1,2,3,4-tetrahydro-6-isoquinolinyl]carbonyl]-3-(methylsulfonyl)-L-phenylalanine], the concentration for half-maximal inhibition (IC50) in data set [5] was 0.00298 µM; in data set [6] it was 0.009 µM.
Compound `CNCc1ccc(-c2cc(-c3nc(-c4ccc(S(=O)(=O)C(C)C)cc4)cnc3N)on2)cc1` [Berzosertib] returned a half-maximal cytotoxic concentration (CC50) at 24 h in data set [7] of 3.14 µM. The “activity in the HeLa-ACE2 cell-based SARS-CoV-2 assay (in words)” value in the data set with SARS-CoV-2 [8] is given as “demonstrated activity”. Besides, the “Hill coefficient (Nh)” value in the data set on SARS-CoV-2 [8] worked out at 1.485. Besides, the “systemic clearance (CL)” value is given as 82 mL/min/kg in data set [9], 13 mL/min/kg in data set [10] and 29 mL/min/kg in [11]. In addition, the “enzyme mainly metabolizing the drug” value in [12] was “cytochrome P450 (CYP) 3A4”. Moreover, the IC50 with SARS-CoV-2 [13] was less than 0.025 µM. The EC50 with SARS-CoV-2 [14] was 0.71 µM; in the data set on SARS-CoV-2 [19] (setting [27]), 0.114 µM; in the data set with SARS-CoV-2 [19] (setting [28]), 0.114 µM. Moreover, in the data set with Vero E6 cells, the half-maximal cytotoxic concentration (CC50) was 11.2 µM. Further, the STD10 in [15] is 30 mg/kg/day. The “safe and well tolerated clinical dose, no DLTs observed” value in data set [16] (once-weekly) is on record as 480 mg/m2; in data set [16] (twice weekly), 240 mg/m2. For the same compound, in data set [17], the “tolerability (in words)” value is “no adverse effects or toxicity”. Besides, in [18], the “half-life (t 1/2)” value is listed as “about 17 hours”.
Consider `Nc1nc(Nc2ccc3c(c2)CC[C@@H](N2CCCC2)CC3)nn1-c1cc2c(nn1)-c1ccccc1CCC2` [R-428], for which the “synergy score with remdesivir against SARS-CoV-2” value with SARS-CoV-2 [20] (Bakowski et al, 2020) is listed as 7.22. Moreover, the concentration for a half-maximal effect (EC50) with SARS-CoV-2 [20] (ReFRAME screen, same methods (Bakowski et al, 2020)) was 2.88 µM. Also, in the data set on HeLa-ACE2 cells [21], the half-maximal cytotoxic concentration (CC50) was more than 40 µM.
On to `Cc1c(-c2ccc(O)cc2)n(Cc2ccc(OCCN3CCCCC3)cc2)c2ccc(O)cc12` [Pipendoxifene], for which the cytotoxic concentration (CC50) in the data set on HeLa-ACE2 cells [22] is more than 39.8 µM. The concentration for an effect of 90% (EC90) with SARS-CoV-2 [8] was 14.3 µM; in the data set on SARS-CoV-2 [19] (Severe acute respiratory syndrome coronavirus 2, HeLa-ACE2, read-out: EC90 (Hill equation, Equation I)), 15 µM; in the data set on SARS-CoV-2 [19] (Severe acute respiratory syndrome coronavirus 2, HeLa-ACE2, read-out: EC90 range from both equations), 14.3 to 15 µM. Besides, the “activity in the HeLa-ACE2 cell-based SARS-CoV-2 assay (in words)” value in the data set with SARS-CoV-2 [8] was “demonstrated activity”. Besides, the half-maximal effective concentration (EC50) worked out at 8.42 µM with SARS-CoV-2 [8] (CoV-2/HeLa-ACE2 assay, unit uM); 8.24 µM in the data set on SARS-CoV-2 [19] (setting [27]); 8.24 µM with SARS-CoV-2 [19] (setting [28]). Further, in the data set with SARS-CoV-2 [8] (derived from the graph), the EC10 came to 5.012 µM. In addition, the “Hill coefficient (Nh)” value in the data set on SARS-CoV-2 [8] was 4. In addition, the safely tolerated dose entry was “at least 20 mg/kg/day” in data set [23] and “up to 200 mg/daily” in [24]. Also, the “half-life (t ½)” value in data set [18] (hamster) is 30 h. The “half-life (t 1/2)” value in data set [18] was 15.8 to 27.3 h.
`CCCCCOC(=O)Nc1nc(=O)n([C@@H]2O[C@H](C)[C@@H](O)[C@H]2O)cc1F` [Capecitabine, 5′-deoxy-5-fluoro-N-[(pentyloxy)carbonyl]-cytidine]: the IC50 was 97 µM in the data set with Scaber cells; 578 µM with SIHA cells; 994 µM in the data set with MKN45 cells; more than 1000 µM in the data set on COLO205 cells; more than 1000 µM in the data set on HCT116 cells; more than 1000 µM with MCF-7 cells.
For `Cc1c(-c2ccc(O)cc2)n(Cc2ccc(OCCN3CCCCCC3)cc2)c2ccc(O)cc12` [Bazedoxifene], the safely tolerated dose is on record as 100 mg/kg/day in [25] and 20 mg/day in [26].

What is called Ki is a dissociation constant, usually derived from enzyme kinetics or from competition with a known ligand. The term EC50 denotes the concentration that produces a half-maximal response. As usually defined, the IC50 is the concentration needed to halve the response being measured. In general, CC50 refers to the concentration giving 50% cytotoxicity. For orientation: EC90 means the point of the concentration-response curve where the effect stands at 90%. A word on the EC10: it is the concentration at which the effect reaches the 10% level. Read a high EC10 as weaker potency.

Values taken from patent publication US12551475B2, “Methods and compositions for treating RNA viral infections” (Model Medicines, Inc., priority 2020, dated 2026).
